System: HeLa cells
Assay: Cellular uptake evaluation, cell imaging and flow cytometer analysis
Assay type: cell-based
Settings: DOX 2 μg/mL
Procedure: For cellular uptake evaluation, cell imaging and flow cytometer analysis were performed. For cell imaging, free DOX and DOX-loaded mfp-1 nanoparticles (DOX concentration 2 μg/mL) were treated for 1 and 3 hours into each cell culture medium after initial cell seeding on 24-well culture plate. Before observation, cells were stained with 5 μg/mL of Hoechst 33258 (Sigma) solution for 30 minutes to clearly discriminate cell nucleus from cytosol. Cell nucleus and location of DOX were observed using fluorescence microscopy (Olympus). Cells treated by same condition with imaging procedures were collected for flow cytometry analysis after detachment by 0.25% trypsin-EDTA treatment. Fluorescence intensity of DOX in the collected cells resuspended in 1 mL PBS was examined by fluorescence scanning with 1×10^4 cells under PerCP-Cy5.5 filter (488 nm excitation and 630 nm emission). Calibration was performed using non-treated cells.

COc1cccc2c1C(=O)c1c(O)c3c(c(O)c1C2=O)C[C@@](O)(C(=O)CO)C[C@@H]3O[C@H]1C[C@H](N)[C@H](O)[C@H](C)O1 [free DOX, doxorubicin]
fluorescence intensity of DOX in cells, flow cytometry (1 and 3 hours): higher than DOX-loaded mfp-1 nanoparticles-treated cells | location of DOX in cells, fluorescence microscopy (treated for 1 hour): spread over the whole cell area

Reference: patent US9675629B2, “PH-responsive nanoparticle using mussel adhesive protein for drug delivery and method for preparing the same” (POSTECH ACADEMY-INDUSTRY FOUNDATION, priority 2015, dated 2017)
